Results published in article PMC12010006, “Subnanomolar MAS-related G protein-coupled receptor-X2/B2 antagonists with efficacy in human mast cells and disease models” (Signal Transduction and Targeted Therapy, 2025).
Like-named read-outs stand apart in the source and are kept apart here. Positions of bridges follow the written chain, without caps; N, C: chain ends. Residues, ends and D or L forms follow the SMILES beside them.

What was measured:
MRGPRX2 [1] = target: T1, MRGPRX2 (Homo sapiens, UniProt Q96LB1); assay: TRUPATH Gαi1 dissociation assay, LN229 cells expressing MRGPRX2; format: cell-based; design: expressed in transfected cells; host or cells: LN229 human glioblastoma cells; plasmid pLXSN-MRGPRX2 (Addgene #213960); settings: read-out: EC50 of agonist, Gαi1 dissociation
T1 sequence (Q96LB1 1-330): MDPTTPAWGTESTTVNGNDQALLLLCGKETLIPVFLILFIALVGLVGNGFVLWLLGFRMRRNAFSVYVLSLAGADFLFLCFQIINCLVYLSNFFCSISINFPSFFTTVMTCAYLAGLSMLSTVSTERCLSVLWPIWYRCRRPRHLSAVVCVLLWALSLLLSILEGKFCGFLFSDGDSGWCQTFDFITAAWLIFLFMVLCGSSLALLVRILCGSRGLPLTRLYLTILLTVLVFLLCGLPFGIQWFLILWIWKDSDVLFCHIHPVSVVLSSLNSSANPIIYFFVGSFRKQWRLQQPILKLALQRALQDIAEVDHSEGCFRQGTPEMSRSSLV
Experimental: (§1) Fig. 3 Biological characterization of PSB-172656. a Selectivity of PSB-172656 (100 nM) for MRGPRX2 over MRGPRX1, MRGPRX3, and MRGPRX4 measured in β-arrestin assays utilizing β-arrestin-CHO cells with recombinant expression of the respective receptor. MRGPRX1 was activated by BAM-22P (8.5 µM),[19] MRGPRX2 was activated by CST-14 (1 µM), MRGPRX3 was activated by PSB-20294 (10 µM), MRGPRX4 was activated by PSB-18061 (2.6 µM).[44] Data represent mean values ± SEM of 3-4 biological replicates, performed in duplicates. […] Data are means ± SEM of 3 biological replicates, in duplicates. Statistical significance was determined by one-way ANOVA (Tukey’s multiple comparison) test (ns P > 0.05). […] Data are means ± SEM of 3 biological replicates, performed in duplicates. e Shift assay to determine inhibition type of PSB-172656 versus CST-14. […] Extrapolated data were not used for analysis but only shown for a comprehensive view. f Schild plot for the effect of PSB-172656 on the concentration-response curves for CST-14. […]
(§2) To further investigate PSB-172656 signaling, direct activation of the relevant G protein subunits, Gαq and Gαi1,[32] was studied. This was assessed using G protein dissociation assays and LN229 cells stably overexpressing MRGPRX2 while transiently expressing the investigated G protein (Fig. 3c, d).[47]

MRGPRX2 [2] = target: T1, MRGPRX2; assay: TRUPATH Gαq dissociation assay, LN229 cells expressing MRGPRX2; format: cell-based; design: expressed in transfected cells; host or cells: LN229 human glioblastoma cells; plasmid pLXSN-MRGPRX2 (Addgene #213960); settings: read-out: EC50 of agonist, Gαq dissociation
Experimental: as §1, §2

mouse MRGPRB2 = target: T2, mouse MRGPRB2 (Mus musculus, UniProt Q3KNA1); design: method as in PMID 38184723; settings: cited from earlier work
T2 construct: expressed in transfected cells; host or cells: 1321N1 astrocytoma cells; plasmid pLVX-IRES-MRGPRB2-mCherry (Addgene #213961)
T2 sequence (Q3KNA1 1-338): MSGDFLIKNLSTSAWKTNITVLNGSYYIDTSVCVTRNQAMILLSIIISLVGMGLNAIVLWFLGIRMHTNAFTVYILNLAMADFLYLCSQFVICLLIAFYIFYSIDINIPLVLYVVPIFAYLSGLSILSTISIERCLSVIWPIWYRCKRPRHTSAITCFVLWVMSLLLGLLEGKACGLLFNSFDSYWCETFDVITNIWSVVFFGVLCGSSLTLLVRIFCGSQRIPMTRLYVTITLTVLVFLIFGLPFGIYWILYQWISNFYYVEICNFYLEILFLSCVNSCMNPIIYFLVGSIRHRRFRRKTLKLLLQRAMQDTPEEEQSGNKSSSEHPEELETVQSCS

MRGPRX2 [3] = target: T1, MRGPRX2; assay: Ca2+ mobilization assay, LN229 cells overexpressing MRGPRX2; format: cell-based; design: expressed in transfected cells; host or cells: LN229 human glioblastoma cells; plasmid pLXSN-MRGPRX2 (Addgene #213960); settings: for Ki: versus CST-14 (EC80 800 nM, EC50 452 nM), Cheng-Prusoff, read-out: Ca2+ assay Ki ± SEM
Experimental: Glioblastoma LN229-MRGPRX2 stably expressing MRGPRX2 (produced by retroviral transfection) were seeded into black sterile 96-well microplates at a density of 5 × 10^4 cells/well in 200 µL of DMEM/F12-Nut Mix medium, supplemented with 10% FCS, 100 U/mL of penicillin 100 µg/mL of streptomycin, and 200 µg/mL of G418 and incubated for 18–22 h.
The next day Fluo-4 AM Solution (1 mM) (Thermo Fisher Scientific) was prepared and used to prepare cell loading dye solution consisting of 4970 µL of Hank’s Buffered Saline Solution (HBSS) buffer, 15 µL of 20% Pluronic-F and 15 µL of 1 mM Fluo-4 AM. Next, the cell medium was removed and exchanged for 40 µL of dye solution per well (final concentration of Fluo-4 AM: 3 µM). The cell plate was incubated for 60 min in the dark at room temperature, then the dye solution was removed and replaced by 189 µL HBSS. Subsequently, 1 µL of antagonist diluted in DMSO was added and incubated for 30 min at room temperature and in the dark (final DMSO concentration 0.5%, v/v). CST-14 or another agonist prepared in HBSS as well as carbachol (final concentration 100 µM) were pipetted (10 µL) using a FlexStation® 3 Multi-Mode Microplate Reader. For the determination of baseline fluorescence, HBSS buffer containing solvent of the investigated compound was used. Fluorescence was measured for 120 intervals of 1 s (number of flashes: 10) at a wavelength of 525 nm (excitation 485 nm) using the SoftMax® Pro5.1 Microplate Data Acquisition & Analysis Software. Three independent experiments were performed in duplicates. Measurements are provided in relative fluorescence units and normalized to the maximal effect of CST-14.

MRGPRX2 [4] = target: T1, MRGPRX2; assay: β-arrestin recruitment assay (antagonist mode), β-arrestin-CHO cells recombinantly expressing MRGPRX2; format: cell-based; design: expressed in transfected cells; settings: for Ki: versus CST-14 (EC80 1,000 nM, EC50 483 nM), Cheng-Prusoff, read-out: β-Arrestin assay Ki ± SEM
[5] = MTT cytotoxicity assay, 1321N1 astrocytoma cells; format: cell-based; settings: human; for cytotoxicity at 72 h, 10000 nM: up to 10,000 nM, read-out: Cytotoxicity % effect
Experimental: Potential cytotoxicity of 24 and its similarly potent analogs 27 and 30 was assessed in 3-(4,5-dimethylthiazol-2-yl)-2,5-diphenyl-2H-tetrazolium bromide (MTT) assays performed on human 1321N1 astrocytoma cells (Supplementary Table S3). This cell line was chosen since it is well-established for the screening of cytotoxic drugs, making it a reliable choice for assessing cytotoxicity.[46]
For the experiment, 1321N1 astrocytoma cells were seeded at a density of 1 × 10^5 cells/well in 180 µL of cell medium into transparent 96-well plates, whereby the outer wells only contained buffer (to avoid an edge effect). Cells were incubated for 24 h at 37°C, 5% CO2. Compound dilutions were prepared in DMSO. […] Subsequently, 20 µL of these compound dilutions were added to each well so that astrocytoma cells were incubated with varying concentrations of MRGPRX2 antagonists (0.01 µM–10 µM) at 37° C, 5% CO2. 5-Fluoruracil, a cytostatic drug, served as a positive control. Medium-containing DMSO in the absence of a compound served as a negative control. After 71 h, […] of MTT solution (5 mg/mL, prepared in Millipore water) was added to each well (final concentration 0.5 mg/mL) and cells were incubated again for another hour. Subsequently, the medium was removed, and cells were lyzed by adding 100 µL of DMSO per well. In order to dissolve the produced formazan dye crystals, plates were incubated for 2 min on a rotary shaker (150 rpm). Afterward, the UV absorbance at 570 nm was measured by using SoftMax® Pro5.1 Microplate Data Acquisition & Analysis Software (Molecular Devices, Sunnyvale, CA, USA). The UV absorbance at 690 nm was measured directly afterward to eliminate the background absorbance of residual medium and cell components. The values of the measured UV absorbance at 690 nm were subtracted from the values obtained by the measurement of UV absorbance at 570 nm. Three to four independent experiments were performed, each in triplicate.

MRGPRX2 [6] = target: T1, MRGPRX2; assay: β-arrestin assay (agonist mode), β-arrestin CHO cells recombinantly expressing MRGPRX2; format: cell-based; settings: for EC50: agonist test, read-out: β-Arrestin assay EC50 ± SEM; for β-Arrestin assay % activation: normalized to CST-14 (EC80 5,000 nM)
Description: Eurofins DiscoverX (Fremont, CA, USA) provided engineered Chinese hamster ovary (CHO) cells stably expressing β-arrestin-2 fused to a large β-galactosidase fragment (enzyme acceptor, EA). These CHO-K1-β-arrestin-2 cells were commercially available (93-0164). CHO-K1-β-arrestin-2 cells that additionally expressed MRGPRX1, -2, or -4 fused to the fragment ProLink™ (PK) were also purchased from the same company (93-0919C2, 93-0309C2, and 3-0541C2A, respectively). CHO cells expressing MRGPRX3 were generated as previously […].[31] The cells were grown in F-12 Ham Nutrient Mixture (Life Technologies) supplemented with 10% FBS, 100 U/mL of penicillin, 100 µg/mL of streptomycin (PAN-Biotech), 300 μg/mL of hygromycin B (PAN-Biotech), and 800 μg/mL of gentamicin (PAN-Biotech) at 37 °C and 5% CO2.).
The assays were carried out as previously described.[22] […] After 30 min of incubation at 37 °C and 5% CO2, Cortistatin-14 (CST-14, Bioscience, Bristol, United Kingdom) or another MRGPRX2 agonist that served as a standard agonist was added, and the mixture was incubated for 90 min at 37 °C and 5% CO2. Next, a detection reagent (50 µL, DiscoverX) was added, and the mixture was incubated at room temperature in the dark for 60 min. Chemiluminescence was measured on a Mithras LB 940 plate reader (Berthold Technologies, Bad Wildbad, Germany). The results represent means ± SEM of three to five independent experiments, each in duplicates.
^d β-Arrestin CHO cells recombinantly expressing MRGPRX2
^f Percentage of activation of normalized to CST-14 (EC80 5,000 nM)

[7] = Metabolic stability in human liver microsomes; format: in vitro ADME; settings: both sexes, human liver microsomes 0.25 mg/ml, compound 1 µM; for half-life at 1 µM: human, liver microsomes, read-out: T1/2 (half-life); for microsomal CLint at 1 µM: read-out: Clint (intrinsic clearance)
MRGPRX2 [8] = target: T1, MRGPRX2; design: expressed in transfected cells; host or cells: LN229 human glioblastoma cells; plasmid pLXSN-MRGPRX2 (Addgene #213960); method as in earlier work; settings: read-out: EC50 as MRGPRX2 agonist; cited from earlier work

| EC50 (MRGPRX2 [1]) [nM] | EC50 (MRGPRX2 [2]) [nM] | EC80 of agonist, Ca2+ assay (MRGPRX2 [3]) [nM] | EC50 (MRGPRX2 [3]; agonist concentration-response curve) [nM] | EC80 of agonist, β-arrestin assay (MRGPRX2 [4]) [nM] | EC50 (MRGPRX2 [4]; agonist concentration-response curve, read-out: EC50 of agonist, β-arrestin assay) [nM] | EC50 (MRGPRX2 [4]; without antagonist, read-out: EC50 of CST-14, shift assay) [nM] | EC50 (MRGPRX2 [6]) [nM] | β-Arrestin assay % activation (MRGPRX2 [6]) [%] | half-life at 1 µM [7] [min] | microsomal CLint at 1 µM [7] [µL/min/mg] | fold less potent than 24 (MRGPRX2 [3]) [fold] | Ki (MRGPRX2 [3]) [nM] | Ki (MRGPRX2 [4]) [nM] | MRGPRX2 antagonistic potency in Ca2+ assay, in words (MRGPRX2 [3]; versus CST-14) | Structure (SMILES) | EC80 of agonist at MRGPRB2, Ca2+ assay (mouse MRGPRB2) [nM] | CC50 at 72 h [5] [nM] | cytotoxicity at 72 h, 10000 nM [5] [%] | EC50 (MRGPRX2 [8]) [nM] |
| --- | --- | --- | --- | --- | --- | --- | --- | --- | --- | --- | --- | --- | --- | --- | --- | --- | --- | --- | --- |
| 113 ± 16 | 499 ± 207 | 800 | 452 ± 49 | 1000 | 483 | 283 ± 45 | – | – | – | – | – | – | – | – | C[C@@H](O)[C@@H]1NC(=O)[C@H](CCCCN)NC(=O)[C@H](Cc2c[nH]c3ccccc23)NC(=O)[C@H](Cc2ccccc2)NC(=O)[C@H](Cc2ccccc2)NC(=O)[C@H](CC(N)=O)NC(=O)[C@H](CCCCN)NC(=O)[C@@H](NC(=O)[C@@H]2CCCN2)CSSC[C@@H](C(=O)N[C@@H](CCCCN)C(=O)O)NC(=O)[C@H](CO)NC(=O)[C@H](CO)NC(=O)[C@H](Cc2ccccc2)NC1=O [CST-14, reference compound] (H-PCKNFFWKTFSSCK-OH; disulfide 2-13; N-terminus and C-terminus assumed) | 2000 | – | – | – |
| – | – | – | – | – | – | – | > 10000 | 0 | 10.6 | 131 | 5 | 6.64 | 28.5 ± 23.9 | – | CCc1c(C(C)C)[nH]c2nc3cc(C)c(C)cc3n2c1=O [Compound 27] | – | > 10000 | 28 | – |
| – | – | – | – | – | – | – | > 10000 | -3 | 14 | 100 | – | 0.455 | 5.89 ± 2.86 | subnanomolar potencies | CCc1c(C(C)C)[nH]c2nc3cc(F)ccc3n2c1=O [Compound 30, 3-ethyl-8-fluoro-2-isopropylbenzo[4,5]imidazo[1,2-a]pyrimidin-4(1H)-one] | – | > 10000 | 30 | – |
| – | – | – | – | – | – | – | – | – | – | – | – | – | – | – | CN(C)[C@@H]1CCN(c2cc(-c3ccccc3)nc3ccnn23)C1 [ZINC-3573] | – | – | – | 760 |
